Tests used:
[1] = head-to-tail type lactamisation of side-chain-protected branched depsipeptide (Gly10 N-terminus of ester branch + C-terminal Pro9), HATU/DIPEA (pH ~10), microwave; conditions: the molecule shown is the open-chain precursor, DCM, 6.0 mM, 70.0 °C, 1.0 h
[2] = tail-to-side-chain lactamisation of side-chain-protected peptide (Dap2 beta-NH2 + C-terminal Pro), HATU/DIPEA, microwave; conditions: the molecule shown is the open-chain precursor; 28-membered ring; DCM; 6.0 mM; 70.0 °C; 1.0 h
[3] = design: key: “+” indicates binding confirmed; “-” indicates no binding; “~” indicates potential binding with absence of precursor band; conditions: Table S2; ref SI [7], [9], [10]; cited from earlier work
Excerpt: page 11: Table S2: Summary of the ability of CDAs to bind cell wall synthesis precursors, as well as tendency to induce membrane depolarisation. “+” indicates binding, “-” indicates no binding, “n.d.” indicates binding has not been determined. * indicates binding occurs in the presence of phosphatidylglycerol. Peptide C -P C-PP Lipid I Lipid II Membrane 55 55 Depolarisation Daptomycin [1]–[4] + * + * n.d. + * + A54145 [5] n.d. n.d. n.d. n.d. + Tsushimycin [4] + n.d. n.d. n.d. n.d. Laspartomycin [6] + n.d. n.d. n.d. - Friulimicin [7] + - - - - Taromycin n.d. n.d. n.d. n.d. n.d. Amphomycin [9], ...

Row | Compound | ring closure, overall yield ([1]; 31-membered ring) | Lipid I binding (reported) [3] | further results
1 | CCCCCCCCCC(=O)NC[C@@H](C)C(=O)NCC(=O)N[C@H](CCC(=O)OC(C)(C)C)C(=O)N[C@@H](Cc1ccc(OC(C)(C)C)cc1)C(=O)N[C@H](C(=O)N[C@@H](C(=O)N[C@@H](CC(=O)OC(C)(C)C)C(=O)N[C@@H](CC(=O)OC(C)(C)C)C(=O)N1CCC[C@H]1C(=O)O)[C@H](C)CC)[C@@H](C)OC(=O)CN(C)C(=O)[C@H](CC(=O)OC(C)(C)C)NC(=O)CNC(=O)[C@H](CC(=O)OC(C)(C)C)NC(=O)CN | 0.3% |  | 
2 | CCCCCCCCCC(=O)NC[C@@H](C)C(=O)NCC(=O)N[C@H](CCC(=O)OC(C)(C)C)C(=O)N[C@@H](Cc1ccc(OC(C)(C)C)cc1)C(=O)N[C@H](C(=O)N[C@@H](C(=O)N[C@@H](CC(=O)OC(C)(C)C)C(=O)N[C@@H](CC(=O)OC(C)(C)C)C(=O)N1CCC[C@H]1C(=O)O)[C@H](C)CC)[C@@H](C)OC(=O)CN(C)C(=O)[C@H](CC(=O)OC(C)(C)C)NC(=O)[C@@H](CC(=O)OC(C)(C)C)NC(=O)CN |  |  | ring closure, overall yield ([1]; 28-membered ring): 0.3%
3 | CCCCCCCCCC(=O)NC[C@@H](C)C(=O)NCC(=O)N[C@H](CCC(=O)OC(C)(C)C)C(=O)N[C@@H](Cc1ccc(OC(C)(C)C)cc1)C(=O)N[C@H](C(=O)N[C@@H](C(=O)N[C@@H](CC(=O)OC(C)(C)C)C(=O)N[C@@H](CC(=O)OC(C)(C)C)C(=O)N1CCC[C@H]1C(=O)O)[C@H](C)CC)[C@@H](C)OC(=O)CN(C)C(=O)[C@H](CCC(=O)OC(C)(C)C)NC(=O)CNC(=O)[C@@H](CCC(=O)OC(C)(C)C)NC(=O)CN | 0.3% |  | 
4 | CCCCCCCCCC(=O)N[C@@H](CC(=O)OC(C)(C)C)C(=O)N[C@@H](CN)C(=O)N[C@@H](C(=O)N[C@@H](CCCCNC(=O)OC(C)(C)C)C(=O)N[C@@H](CC(=O)OC(C)(C)C)C(=O)N[C@@H](CC(=O)OC(C)(C)C)C(=O)N(CC(=O)N[C@H](CC(=O)OC(C)(C)C)C(=O)N[C@H](C(=O)N1CCC[C@H]1C(=O)O)C(C)C)Cc1ccc(OC)cc1OC)C(C)C |  |  | ring closure, overall yield [2]: 1.3%
5 | Amphomycin |  | - | 
6 | Friulimicin |  | - | 

From paper PMC12650660, “Novel Synthetic Strategies Towards Analogues of Cadaside and Malacidin Antibiotic Peptides” (Biomolecules, 2025)
